Data reported in patent US20210139846A1, “ENGINEERED CELLS, AND METHODS OF USING THE SAME” (Board of Supervisors of Louisiana State University and …, priority 2017, published 2021).
Each block holds one molecule with its values, some of them ahead of it.

Tests used:
[1] = target: T1, AdipoR1 (Homo sapiens, UniProt Q96A54); assay: DHA-d5 / AA-d8 uptake by hASCs overexpressing AdipoR1, LC-MS/MS, with adiporon (FIG. 11); assay type: cell-based
T1 construct: host or cells: human adipose tissue-derived stem cells (hASC); human primary retinal pigment epithelial (ABC) cells
T1 sequence (Q96A54 1-375): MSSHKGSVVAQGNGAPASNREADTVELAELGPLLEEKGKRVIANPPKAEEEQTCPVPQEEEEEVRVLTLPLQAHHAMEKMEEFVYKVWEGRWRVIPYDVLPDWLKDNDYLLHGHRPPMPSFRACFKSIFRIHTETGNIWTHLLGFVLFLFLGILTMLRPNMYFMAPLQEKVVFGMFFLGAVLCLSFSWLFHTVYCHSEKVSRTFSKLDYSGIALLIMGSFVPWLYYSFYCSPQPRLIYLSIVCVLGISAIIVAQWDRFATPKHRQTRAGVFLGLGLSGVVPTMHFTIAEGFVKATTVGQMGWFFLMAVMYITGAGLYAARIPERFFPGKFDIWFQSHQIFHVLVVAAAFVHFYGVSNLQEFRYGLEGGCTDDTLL
Protocol: Stable clones of hASCs overexpressing AdipoR1 or mCherry following lentivirus transduction, were incubated overnight in the presence or not of DHA-d5 or AA-d8 (1 μM) and vehicle DMSO with various concentrations of AdipoR1 […] adiporon (1-50 μM). […] Compared to DHA-d5 uptake, levels of AA-d8 were extremely low under these conditions.

[2] = system: human adipose tissue derived stem cells; assay: Chemical transdifferentiation of stem cells into neurons with DHA (FIG. 12); assay type: cell-based; details: 24 hours, induction media containing DHA (504) vs induction medium alone
Protocol: Images were taken 24 hours following incubation in the presence of induction media containing or not containing DHA (504).

[3] = system: neurons and neural stem/progenitor cells; details: cited from earlier work
[4] = system: SD male rats, 2 h of MCAo; assay: 2 h MCAo by intraluminal suture, DHA 5 mg/kg IV (FIG. 16-23); assay type: in vivo
Protocol: (11-12 weeks old); Model: 2 h of MCAo by intraluminal suture; DHA (5 mg/kg) or Saline treatments (IV)—at 3 h from onset of MCAo; BrdU labeling at days 4, 5, 6; Immunohistochemistry on week 2

[5] = system: SD male rats, 2 h of MCAo; details: DHA systemically injected; reference 8; cited from earlier work
[6] = system: ischemic stroke; assay: DHA administered icv after ischemic stroke (FIG. 7); assay type: in vivo, rats
[7] = DHA 5 mg/kg IV, immunohistochemistry on week 2

levels of AA-d8 compared to DHA-d5 uptake ([1]; 1 μM AA-d8 overnight in hASCs): extremely low
Compound: CCCCC/C=C\C/C=C\C/C=C\C/C=C\CCCC(=O)O [AA-d8]

Compound: CC/C=C\C/C=C\C/C=C\C/C=C\C/C=C\C/C=C\CCC(=O)O [DHA, 4,7,10,13,16,19-docosahexanoic acid]
percentage of morphologically mature neurons [2]: strongly increased
neurite growth, synaptogenesis, synaptic protein expression and synaptic functions in hippocamal neuron ([3]; Cao, D et al., 2009): promotes
neurite outgrowth ([3]; DHA supplementation, L. Dagai et al., 2009): accelerated
neuronal differentiation of neural stem cells ([3]; M. Katakura et al., 2009): enhances
number of neurons derived from neural stem/progenitor cells ([3]; Nobuyuki Sakayoti et al., 2011): increases
total neurologic deficits ([4]; DHA 5 mg/kg IV at 3 h from onset of MCAo vs saline): improved
cortical infarct volume ([4]; DHA 5 mg/kg IV, histopathology): reduced
total infarct volume ([4]; DHA 5 mg/kg IV, histopathology): reduced
BrdU+/DCX+ cells in cortex, SVZ and DG [4, 7]: increased
BrdU+/NeuN+ cells in cortex, SVZ and DG [4, 7]: increased
BrdU+/ki-67+ cells in cortex, SVZ and DG [4, 7]: increased
neurogenesis in the DG, SVZ and peri-infarct area ([4]; proliferation, differentiation and migration of neural stem cells): increased
infarct volume ([4]; rat, in vivo): reduced
neurobehavioral recovery ([4]; rat, in vivo): promoted
neuroprotection against ischemic stroke [5]: neuroprotective
ischemic brain damage ([6]; DHA at the site where GESC would be administered (icv), 7 days): reduced
behavioral functions ([6]; DHA icv, 7 days): improves
protection by DHA administered icv ([6]; icv): protective

effect on DHA-d5 uptake of AdipoR1 transduced cells ([1]; adiporon 1-50 μM, 1 μM DHA-d5 overnight): further increased
Compound: O=C(COc1ccc(C(=O)c2ccccc2)cc1)NC1CCN(Cc2ccccc2)CC1 [adiporon]
